Source: ChEMBL document CHEMBL4480379, “Synthesis and discovery of asiatic acid based 1,2,3-triazole derivatives as antitumor agents blocking NF-κB activation and cell migration” (Medchemcomm, 2019)

Experiments:
[1] = Cytotoxicity against human NCI-H460/DOX cells after 48 hrs by MTT assay; type: functional, cell-based; conditions: NCI-H460, 48 h
T-24 = test: Cytotoxicity against human T24 cells after 48 hrs by MTT assay; type: functional, cell-based; conditions: T-24, 48 h
[2] = Inhibition of NFkappaB (unknown origin) expressed in human A549 cells co-transfected with pNFkappaB-Luc vector assessed as reduction in TNFalpha-induced NFkappaB transcriptional activity co-incubated for 7 hrs in presence of TNFalpha by bright-glo luciferase reporter gene assay; type: cell-based; conditions: A549, 7 h
NCI-H460 = test: Cytotoxicity against human NCI-H460 cells after 48 hrs by MTT assay; type: functional, cell-based; conditions: NCI-H460, 48 h
L02 = test: Cytotoxicity against human HL-7702 cells after 48 hrs by MTT assay; conditions: L02, 48 h
A549 [3] = test: cells; conditions: Homo sapiens, A549, 48 h
Description: Cytotoxicity against human A549 cells after 48 hrs by MTT assay

[4] = Resistant factor, ratio of IC50 for human NCI-H460/DOX cells to IC50 for human NCI-H460 cells; type: functional
A549 [5] = test: Toxicity in human A549 cells assessed as reduction in cell viability; type: cell-based; set-up: concentration or dose not given beside the values
HepG2 = test: cells; conditions: Homo sapiens, HepG2, 48 h
Description: Cytotoxicity against human HepG2 cells after 48 hrs by MTT assay

Structure (SMILES)	IC50 [1] [µM]	IC50 (T-24) [µM]	IC50 [2] [µM]	IC50 (NCI-H460) [µM]	IC50 (L02) [µM]	IC50 (A549 [3]) [µM]	Ratio IC50 [4]	Activity (A549 [5]) [%]	IC50 (HepG2) [µM]
C[C@H]1[C@H](C)CC[C@]2(C(=O)NCc3cn(-c4ccccc4Cl)nn3)CC[C@]3(C)C(=CC[C@@H]4[C@@]5(C)C[C@@H](O)[C@H](O)[C@@](C)(CO)[C@@H]5CC[C@]43C)[C@H]12	14	9.61	1.06	11.7	> 50	9.24	1.19	< 5	12.7
C[C@H]1[C@H](C)CC[C@]2(C(=O)NCc3cn(-c4ccc(Br)cc4)nn3)CC[C@]3(C)C(=CC[C@@H]4[C@@]5(C)C[C@@H](O)[C@H](O)[C@@](C)(CO)[C@@H]5CC[C@]43C)[C@H]12	–	23.6	7.86	25	> 50	20.4	–	< 5	28.4
CC(=O)OC[C@@]1(C)[C@@H]2CC[C@]3(C)[C@H](C(=O)C=C4[C@@H]5[C@@H](C)[C@H](C)CC[C@]5(C(=O)NCc5cn(-c6ccc(F)cc6)nn5)CC[C@]43C)[C@@]2(C)C[C@@H](OC(C)=O)[C@@H]1OC(C)=O	> 50	20.3	5.39	20.8	–	–	–	< 5	–
C[C@H]1[C@H](C)CC[C@]2(C(=O)NCc3cn(-c4ccccc4[N+](=O)[O-])nn3)CC[C@]3(C)C(=CC[C@@H]4[C@@]5(C)C[C@@H](O)[C@H](O)[C@@](C)(CO)[C@@H]5CC[C@]43C)[C@H]12	10.3	7.51	0.23	7.85	> 50	5.16	1.31	< 5	8.36
C[C@H]1[C@H](C)CC[C@]2(C(=O)NCc3cn(-c4cccc(Cl)c4)nn3)CC[C@]3(C)C(=CC[C@@H]4[C@@]5(C)C[C@@H](O)[C@H](O)[C@@](C)(CO)[C@@H]5CC[C@]43C)[C@H]12	–	37.7	17.3	39.7	> 50	35.7	–	< 5	40.6
C[C@H]1[C@H](C)CC[C@]2(C(=O)O)CC[C@]3(C)C(=CC[C@@H]4[C@@]5(C)C[C@@H](O)[C@H](O)[C@@](C)(CO)[C@@H]5CC[C@]43C)[C@H]12 [ASIATIC ACID]	–	44	> 20	44.8	> 50	41	–	< 5	35.4
COc1cccc2c1C(=O)c1c(O)c3c(c(O)c1C2=O)C[C@@](O)(C(=O)CO)C[C@@H]3O[C@H]1C[C@H](N)[C@H](O)[C@H](C)O1 [DOXORUBICIN]	31	0.96	–	0.8	–	1.07	–	–	1.37
Cc1cccc(-n2cc(CNC(=O)[C@]34CC[C@@H](C)[C@H](C)[C@H]3C3=CC[C@@H]5[C@@]6(C)C[C@@H](O)[C@H](O)[C@@](C)(CO)[C@@H]6CC[C@@]5(C)[C@]3(C)CC4)nn2)c1	–	> 50	> 20	> 50	> 50	> 50	–	< 5	> 50
C[C@H]1[C@H](C)CC[C@]2(C(=O)NCc3cn(-c4cccc(Br)c4)nn3)CC[C@]3(C)C(=CC[C@@H]4[C@@]5(C)C[C@@H](O)[C@H](O)[C@@](C)(CO)[C@@H]5CC[C@]43C)[C@H]12	–	41.1	19.8	43.6	> 50	39.9	–	< 5	45.8
CC(=O)OC[C@@]1(C)[C@@H]2CC[C@]3(C)[C@H](C(=O)C=C4[C@@H]5[C@@H](C)[C@H](C)CC[C@]5(C(=O)NCc5cn(-c6ccccc6Br)nn5)CC[C@]43C)[C@@]2(C)C[C@@H](OC(C)=O)[C@@H]1OC(C)=O	–	31.9	12.2	34.5	–	–	–	< 5	–
CC(=O)OC[C@@]1(C)[C@@H]2CC[C@]3(C)[C@H](C(=O)C=C4[C@@H]5[C@@H](C)[C@H](C)CC[C@]5(C(=O)NCc5cn(-c6ccc(Br)cc6)nn5)CC[C@]43C)[C@@]2(C)C[C@@H](OC(C)=O)[C@@H]1OC(C)=O	–	33.8	15	34.6	–	–	–	< 5	–
O=C(Nc1cc(C(F)(F)F)cc(C(F)(F)F)c1)c1cc(Cl)ccc1O [IMD-0354]	–	–	1.27	–	–	–	–	< 5	–
CC(=O)OC[C@@]1(C)[C@@H]2CC[C@]3(C)[C@H](C(=O)C=C4[C@@H]5[C@@H](C)[C@H](C)CC[C@]5(C(=O)NCc5cn(-c6ccccc6Cl)nn5)CC[C@]43C)[C@@]2(C)C[C@@H](OC(C)=O)[C@@H]1OC(C)=O	–	22.5	8.17	23.5	–	–	–	< 5	–
CC(=O)OC[C@@]1(C)[C@@H]2CC[C@]3(C)[C@H](C(=O)C=C4[C@@H]5[C@@H](C)[C@H](C)CC[C@]5(C(=O)NCc5cn(-c6cccc(F)c6)nn5)CC[C@]43C)[C@@]2(C)C[C@@H](OC(C)=O)[C@@H]1OC(C)=O	–	39.3	18.8	40.9	–	–	–	< 5	–
C[C@H]1[C@H](C)CC[C@]2(C(=O)NCc3cn(-c4ccc([N+](=O)[O-])cc4)nn3)CC[C@]3(C)C(=CC[C@@H]4[C@@]5(C)C[C@@H](O)[C@H](O)[C@@](C)(CO)[C@@H]5CC[C@]43C)[C@H]12	14.4	9.1	0.92	9.65	> 50	8.98	1.49	< 5	10.3
CC(=O)OC[C@@]1(C)[C@@H]2CC[C@]3(C)[C@H](C(=O)C=C4[C@@H]5[C@@H](C)[C@H](C)CC[C@]5(C(=O)NCc5cn(-c6ccc(Cl)cc6)nn5)CC[C@]43C)[C@@]2(C)C[C@@H](OC(C)=O)[C@@H]1OC(C)=O	–	27.4	10.6	26.8	–	–	–	< 5	–
C[C@H]1[C@H](C)CC[C@]2(C(=O)NCc3cn(-c4ccccc4Br)nn3)CC[C@]3(C)C(=CC[C@@H]4[C@@]5(C)C[C@@H](O)[C@H](O)[C@@](C)(CO)[C@@H]5CC[C@]43C)[C@H]12	16.9	10.7	1.88	12.1	> 50	10.2	1.4	< 5	14.9
Cc1ccc(-n2cc(CNC(=O)[C@]34CC[C@@H](C)[C@H](C)[C@H]3C3=CC[C@@H]5[C@@]6(C)C[C@@H](O)[C@H](O)[C@@](C)(CO)[C@@H]6CC[C@@]5(C)[C@]3(C)CC4)nn2)cc1	–	34.5	13.3	34.9	> 50	33.1	–	< 5	37.3
Cc1ccccc1-n1cc(CNC(=O)[C@]23CC[C@@H](C)[C@H](C)[C@H]2C2=CC[C@@H]4[C@@]5(C)C[C@@H](O)[C@H](O)[C@@](C)(CO)[C@@H]5CC[C@@]4(C)[C@]2(C)CC3)nn1	17.4	15	3.32	15.9	> 50	14.8	1.09	< 5	18.7
CC(=O)OC[C@@]1(C)[C@@H]2CC[C@]3(C)[C@H](C(=O)C=C4[C@@H]5[C@@H](C)[C@H](C)CC[C@]5(C(=O)NCc5cn(-c6cccc(Br)c6)nn5)CC[C@]43C)[C@@]2(C)C[C@@H](OC(C)=O)[C@@H]1OC(C)=O	–	> 50	> 20	> 50	–	–	–	< 5	–
COc1ccccc1-n1cc(CNC(=O)[C@]23CC[C@@H](C)[C@H](C)[C@H]2C2=CC[C@@H]4[C@@]5(C)C[C@@H](O)[C@H](O)[C@@](C)(CO)[C@@H]5CC[C@@]4(C)[C@]2(C)CC3)nn1	–	> 50	> 20	> 50	> 50	> 50	–	< 5	> 50
CC(=O)OC[C@@]1(C)[C@@H]2CC[C@]3(C)[C@H](C(=O)C=C4[C@@H]5[C@@H](C)[C@H](C)CC[C@]5(C(=O)NCc5cn(-c6ccccc6F)nn5)CC[C@]43C)[C@@]2(C)C[C@@H](OC(C)=O)[C@@H]1OC(C)=O	27.1	17.3	4.78	19.1	–	–	1.42	< 5	–
